What was measured:
[1] = tested on: p-Smad1/5/8 (Smad phosphorylation); assay: Western blot of p-Smad normalized to total Smad; format: cell-based; conditions: Mus musculus, 0.5 h, 30 min, read-out: p-Smad level, percent of control
Procedure: To investigate whether the new indolyl-benzimidazole compounds activate BMP receptor-dependent signaling pathways, the levels of p-Smad in serum-starved C2C12 cells, treated for 30 min with SY-LB-35 and SY-LB-57, were assessed by Western blot analysis. Whole cell lysates of treated C2C12 cells were probed for p-Smad using phospho-specific anti-Smad antibodies. p-Smad levels were normalized against total Smad levels.
(§1) C2C12 cells (3 mL) were seeded into 35 mm dishes at 7.5 × 10^4 cells/mL in complete growth medium, incubated to reach 80% confluence and serum-starved for 16–18 h. […] Thereafter, the cultures were washed with ice-cold 1X TBS for 2 min. Lysis Buffer (Cell Signaling Technology, Danvers, MA, USA) supplemented with 1 mM PMSF (phenylmethylsulphonyl fluoride) was added to the cultures and whole cell lysates were prepared.
Laemmli sample buffer (4X) was added to the whole cell lysates (20 µg) to a final concentration of 1X and heated at 100 °C for 5 min. The samples were immediately cooled on ice for 5 min and centrifuged at 9500 rpm for 2 min at RT. The samples and the Precision Plus Protein Standard (5 µL; Bio-Rad, Hercules, CA, USA) were loaded on 12% SDS polyacrylamide gels. Protein was separated using the Bio-Rad Mini Protean II Gel Electrophoresis System at 135 V. Meanwhile, 0.2 µm nitrocellulose membranes were pre-incubated in cold 1X Transfer Buffer (10 mM Tris/2.5 mM glycine/20% methanol) for at least 30 min. Next, the separated proteins were transferred at 100 V onto the pre-equilibrated nitrocellulose membranes for 1 h in Transfer Buffer, followed by blocking in 5% BSA/0.1% Tween 20/1X TBS for 30 min. The membranes were incubated overnight at 4 °C with the desired primary rabbit monoclonal antibody (p-Smad1/5(S463/465)/9(S465/467), Smad1 (D5907) XP®, p-Akt (Ser473) (D9E) XP®, or Akt (pan) (C67E7), p-SAPK/JNK (Thr183/Tyr185), SAPK/JNK, β-actin (Cell Signaling Technologies, Danvers, MA, USA)) or rabbit polyclonal antibody (phospho-PI3 Kinase p85 (Tyr458)/p55 (Tyr199) antibody (Cell Signaling Technologies, Danvers, MA, USA), p-p38 MAPK, p38 MAPK, p-ERK1, ERK1/2) (Abclonal, Woburn, MA, USA)) in Antibody Dilution Buffer (1% BSA/0.1% Tween 20/1X TBS) and then washed with 1X TBST (0.1% Tween 20/1X TBS) three times for 15 min. HRP-conjugated Goat Anti-Rabbit IgG secondary antibody (Santa Cruz Biotechnology, Inc., Dallas, TX, USA) in Antibody Dilution Buffer was added to the membranes for 1 h at RT followed by three 15-min washes with 1X TBST. Finally, the blots were developed using SuperSignal ™ West Femto HRP Substrate solutions (Thermo Scientific, Rockford, IL, USA) and analysed using the Omega Lum™ G Imaging System (San Francisco, CA, USA). Quantification of chemiluminescent signals was carried out using ImageJ (Image Processing and Analysis in Java 1.8.0_112).

[2] = tested on: p-Smad nuclear translocation; assay: Immunofluorescent labeling of p-Smad nuclear translocation; format: cell-based, mouse; conditions: 1 µM, 30 min
Procedure: Serum-starved C2C12 cells grown on poly-D-lysine (PDL)-coated coverslips were stimulated with BMP2 (50 ng/mL), SY-LB-35 (1 µM) or SY-LB-57 (1 µM) for 30 min.
In a 24-well plate, 12 mm glass coverslips were coated for 1 h at RT with 500 µL PDL (0.1 mg/mL/ 0.1 M Boric acid), washed 4 times with cell culture-grade distilled water and sterilized under UV light for 30 min. C2C12 cells (500 µL) were seeded onto the PDL-coated coverslips at a density of 1 × 10^5 cells/mL, grown to 80% confluency and starved in SS medium for 2 h. Next, the cells were treated with 50 ng/mL BMP2 or 1 µM SY-LB-35 or SY-LB-57 for 15 min (for p-Akt labelling) or 30 min (for p-Smad labelling). Cells were then fixed using ice-cold 4% PFA/PBS for 10 min at RT. Next, the coverslips were washed with ice-cold 1X PBS, transferred to a humidified chamber and incubated (100 µL/coverslip) in Permeabilization solution (0.1% Triton X-100/PBS) for 15 min, then Blocking Buffer (10% heat inactivated goat serum/ 0.3% Triton X-100/PBS) for 30 min. Anti-p-Smad antibodies in Antibody Dilution Buffer (1% BSA/0.1% Tween 20/PBS) were added for 1 h and the coverslips were washed 4 times with 1X PBS. The Cy3-conjugated goat anti-rabbit IgG secondary antibodies (Jackson Immuno Research Labs, West Grove, PA, USA) in Antibody Dilution Buffer were added for 1 h followed by 4 washes with 1X PBS and once with dH2O. […]

[3] = tested on: PI3K enzyme; assay: PI3K ELISA on PI3K immunoprecipitated from treated cells; format: cell-based, mouse; conditions: 10 µM, 15 min; for Amount of PIP3 produced by PI3K enzyme: control 0.61 pmol
Procedure: PI3K enzyme was immunoprecipitated and processed in a PI3K ELISA (Fig. 7B). […] The enzyme activity is expressed as the amount of product (PIP3) generated in each sample by the PI3K enzyme per minute of reaction.
C2C12 cells were seeded in 35-mm dishes at 7 × 10^4 cells/mL and incubated at 37 °C in 5% CO2 to reach 80% confluency. […] Cells (~ 10^6) per treatment were collected to prepare whole cell lysates followed by exposure to three freeze/thaw cycles in liquid nitrogen. The samples were centrifuged and PI3K enzyme was immunoprecipitated with a mouse monoclonal anti-PI3K p55 γ antibody ((E-9), Santa Cruz Biotechnology, Dallas, TX, USA) for 1 h at 4 °C with gentle rocking and the immune complexes were collected overnight on a rocking platform at 4 °C with Dynabeads™ Protein A (Life Technologies, Carlsbad, CA, USA). The next day, the immunoprecipitated PI3K enzyme was collected by centrifugation processed for a PI3K ELISA (Echelon Biosciences, Salt Lake, City, UT, USA) according to the manufacturer’s instructions. Standard solutions of PIP3 (0, 0.22, 0.67, 2, 6, 18, and 54 pmol) were added to kinase reactions using recombinant PI3K enzyme (Echelon Biosciences, Salt Lake, City, UT, USA) and used to generate a standard curve for production of PIP3. The optical density of the PIP3 standards and the reactions containing immunoprecipitated PI3K from treated samples was measured at 450 nm.

[4] = tested on: p-ERK; assay: Western blot of p-ERK; format: cell-based, mouse; conditions: 0.01–10 µM, 15 min
Procedure: (§2) Whole cell lysates were prepared from the treated cultures for Western blot analysis.
as §1
(§3) Laemmli sample buffer (4X) was added to the whole cell lysates (20 µg) to a final concentration of 1X and heated at 100 °C for 5 min. The samples were immediately cooled on ice for 5 min and centrifuged at 9500 rpm for 2 min at RT. The samples and the Precision Plus Protein Standard (5 µL; Bio-Rad, Hercules, CA, USA) were loaded on 12% SDS polyacrylamide gels. […] Finally, the blots were developed using SuperSignal ™ West Femto HRP Substrate solutions (Thermo Scientific, Rockford, IL, USA) and analysed using the Omega Lum™ G Imaging System (San Francisco, CA, USA). Quantification of chemiluminescent signals was carried out using ImageJ (Image Processing and Analysis in Java 1.8.0_112).

[5] = tested on: p-p38; assay: Western blot of p-p38; format: cell-based, mouse; conditions: 0.01–10 µM, 15 min
Procedure: as §2, §1, §3

Compound | activity at 0.01 µM [1] | activity at 0.1 µM [1] | activity at 1 µM [1] | activity at 10 µM [1] | p-Smad nuclear translocation [2] | PIP3 produced, higher compared to control untreated cells [3] | Amount of PIP3 produced by PI3K enzyme [3] | p-ERK level [4] | p-p38 level [5]
Oc1ccc2[nH]c(-c3nc4ccccc4[nH]3)cc2c1 [SY-LB-35] | 150% | 170% | 282% | 188% | induced the translocation of p-Smad into the nucleus | 26% | 0.77 pmol | stimulated increases | stimulated increases
COc1ccc2[nH]c(-c3nc4ccccc4[nH]3)cc2c1 [SY-LB-57] | 234% | 316% | 276% | 357% | induced the translocation of p-Smad into the nucleus | 26% | 0.77 pmol | stimulated increases | stimulated increases

From PMC9287337 (Scientific Reports, 2022)
